# Data: PubChem BioAssay AID489010 (Southern Research Specialized Biocontainment Screening …, 2010)
# The source made the active and inactive calls. The rule behind the calls is not given here.
# Test: M. tuberculosis H37Rv growth inhibition, dose response, strain H37Rv (AID 489010)
# Conditions: M. tuberculosis H37Rv growth inhibition; at 100 µM (top of the series)
row,Structure (SMILES),growth inhibition
1,CCCCc1ccc(NC(=O)CSCc2cc(=O)[nH][nH]2)cc1,-4.95% (inactive)
2,Cc1ccc(C2C(C#N)=C(N)Oc3n[nH]c(-c4cccs4)c32)cc1 (stereo unspecified),3.65% (inactive)
3,Cc1ccc(SCc2[nH]nc3c2C2(CCSCC2)C(C#N)=C(N)O3)cc1,6.38% (inactive)
4,O=C(CCCN1C(=O)/C(=C/c2cccs2)SC1=S)Nc1ccc(O)cc1,21.9% (inactive)
5,CC(/C=N/NC(=O)Cc1cc(=O)[nH][nH]1)=C\c1ccccc1,2.34% (inactive)
6,CC(=O)Nc1cc(OC(=O)c2ccco2)cc(OC(=O)c2ccco2)c1,1.93% (inactive)
7,O=C(Cc1cc(=O)[nH][nH]1)N/N=C/c1ccccc1Cl,2.61% (inactive)
8,Cc1ccc(-c2[nH]nc3c2C(c2ccc(OC(=O)N4CCOCC4)cc2)C(C#N)=C(N)O3)cc1 (stereo unspecified),3.59% (inactive)
9,Cc1ccccc1-c1nc(CN(C)C(C)c2ccon2)c(C)o1 (stereo unspecified),4.51% (inactive)
10,CC(=O)N(C1CC(C)C(C#N)(C#N)C1(C#N)C#N)N(C)C (stereo unspecified),-7.63% (inactive)
11,Cc1ccc(SCC2=NNC(=O)C2)cc1,5.45% (inactive)
12,O=c1cc(-c2ccc(Br)cc2)[nH][nH]1,-4.27% (inactive)
13,CCOc1cc(C2C(C#N)=C(N)Oc3n[nH]c(-c4ccccc4)c32)ccc1O (stereo unspecified),4.87% (inactive)
14,CCCc1[nH]nc2c1C(c1ccoc1)C(C#N)=C(N)O2 (stereo unspecified),1.3% (inactive)
15,CCOc1ccc(-c2[nH]nc3c2C(c2ccc(O)cc2)C(C#N)=C(N)O3)cc1 (stereo unspecified),-1.9% (inactive)
16,N#CC1=C(N)Oc2n[nH]c(-c3cccs3)c2C1c1ccccc1C(=O)O (stereo unspecified),10.2% (inactive)
17,O=C(Cc1cc(=O)[nH][nH]1)N/N=C/C(Cl)=C/c1ccccc1,6.66% (inactive)
18,Cc1ccc(O)c(N=CC2=C(O)c3ccccc3C2=O)c1,9.56% (inactive)
19,COC(=O)C(C#N)C(c1cccnc1)c1c(C)[nH][nH]c1=O (stereo unspecified),-0.4% (inactive)
20,Cc1nc2ccccc2c2c1C(=O)N(C)C2=O,-4.82% (inactive)
21,CCOC(=O)C/C(C)=N/NC(=O)COc1ccccc1C,2.99% (inactive)
22,O=C(CSc1nnc(-c2ccccc2Cl)o1)Oc1ccc(Br)cc1,0.13% (inactive)
23,Cc1cc(-c2[nH]nc3c2C(c2ccc(Cl)cc2)C(C#N)=C(N)O3)c(C)s1 (stereo unspecified),8.76% (inactive)
24,Cc1ccc(-c2cc(=O)[nH][nH]2)c(C)c1,1.66% (inactive)
25,C/C(=N/NC(=O)Cc1cc(=O)[nH][nH]1)c1ccc([N+](=O)[O-])cc1,-1.21% (inactive)
26,N#CC1=C(N)Oc2n[nH]c(-c3ccccc3)c2C1c1ccsc1 (stereo unspecified),7.24% (inactive)
